Bridge positions count the residues as written; N and C are the ends. Ends that are not written are not given here.
Tested on: patients with chronic idiopathic constipation (CIC)
Assay: Second phase 3 CIC trial: change from baseline in CSBMs/week
Format: in vivo, human
Conditions: MRA
[1] = Week 3, 6 mg, ITT Population-Excluding Duplicate Patients
[2] = Week 4, 3 mg, ITT Population-Excluding Duplicate Patients
[3] = Week 4, 6 mg, ITT Population-Excluding Duplicate Patients
[4] = Week 5, 3 mg, ITT Population-Excluding Duplicate Patients
[5] = Week 5, 6 mg, ITT Population-Excluding Duplicate Patients
[6] = Week 6, 3 mg, ITT Population-Excluding Duplicate Patients
[7] = Week 6, 6 mg, ITT Population-Excluding Duplicate Patients
[8] = Week 7, 3 mg, ITT Population-Excluding Duplicate Patients
[9] = Week 7, 6 mg, ITT Population-Excluding Duplicate Patients
[10] = Week 8, 3 mg, ITT Population-Excluding Duplicate Patients

Substance: Asn^1-Asp^2-Glu^3-Cys^4-Glu^5-Leu^6-Cys^7-Val^8-Asn^9-Val^10-Ala^11-Cys^12-Thr^13-Gly^14-Cys^15-Leu^16 (NDECELCVNVACTGCL; disulfide 4-12, 7-15) [Plecanatide, uroguanylin analogue, guanylate cyclase-C agonist; (C4:C12, C7:C15) bicycle peptide]
- Change from Baseline in CSBMs, Mean (SD) (Week 3, 6 mg, ITT Population): 1.82 (2.949) CSBMs/week
- Change from Baseline in CSBMs, Difference from Placebo [1]: 0.61 CSBMs/week
- Change from Baseline in CSBMs, LS Mean (SE) [1]: 1.83 (0.154) CSBMs/week
- Change from Baseline in CSBMs, Mean (SD) [1]: 1.83 (2.958) CSBMs/week
- Change from Baseline in CSBMs, Mean (SD) (Week 3, Active Combined, ITT Population-Excluding Duplicate Patients): 1.89 (3.049) CSBMs/week
- Change from Baseline in CSBMs, Mean (SD) (Week 3, Active Combined, ITT Population): 1.88 (3.032) CSBMs/week
- Change from Baseline in CSBMs, Difference from Placebo (Week 4, 3 mg, ITT Population): 0.91 CSBMs/week
- Change from Baseline in CSBMs, LS Mean (SE) (Week 4, 3 mg, ITT Population): 2.16 (0.153) CSBMs/week
- Change from Baseline in CSBMs, Mean (SD) (Week 4, 3 mg, ITT Population): 2.19 (3.395) CSBMs/week
- Change from Baseline in CSBMs, Difference from Placebo [2]: 0.92 CSBMs/week
- Change from Baseline in CSBMs, LS Mean (SE) [2]: 2.20 (0.156) CSBMs/week
- Change from Baseline in CSBMs, Mean (SD) [2]: 2.22 (3.418) CSBMs/week
- Change from Baseline in CSBMs, Difference from Placebo (Week 4, 6 mg, ITT Population): 0.75 CSBMs/week
- Change from Baseline in CSBMs, LS Mean (SE) (Week 4, 6 mg, ITT Population): 2.00 (0.152) CSBMs/week
- Change from Baseline in CSBMs, Mean (SD) (Week 4, 6 mg, ITT Population): 2.03 (3.243) CSBMs/week
- Change from Baseline in CSBMs, Difference from Placebo [3]: 0.75 CSBMs/week
- Change from Baseline in CSBMs, LS Mean (SE) [3]: 2.02 (0.154) CSBMs/week
- Change from Baseline in CSBMs, Mean (SD) [3]: 2.03 (3.254) CSBMs/week
- Change from Baseline in CSBMs, Mean (SD) (Week 4, Active Combined, ITT Population-Excluding Duplicate Patients): 2.13 (3.335) CSBMs/week
- Change from Baseline in CSBMs, Mean (SD) (Week 4, Active Combined, ITT Population): 2.11 (3.318) CSBMs/week
- Change from Baseline in CSBMs, Difference from Placebo (Week 5, 3 mg, ITT Population): 0.84 CSBMs/week
- Change from Baseline in CSBMs, LS Mean (SE) (Week 5, 3 mg, ITT Population): 2.31 (0.154) CSBMs/week
- Change from Baseline in CSBMs, Mean (SD) (Week 5, 3 mg, ITT Population): 2.39 (3.375) CSBMs/week
- Change from Baseline in CSBMs, Difference from Placebo [4]: 0.85 CSBMs/week
- Change from Baseline in CSBMs, LS Mean (SE) [4]: 2.35 (0.157) CSBMs/week
- Change from Baseline in CSBMs, Mean (SD) [4]: 2.43 (3.395) CSBMs/week
- Change from Baseline in CSBMs, Difference from Placebo (Week 5, 6 mg, ITT Population): 0.48 CSBMs/week
- Change from Baseline in CSBMs, LS Mean (SE) (Week 5, 6 mg, ITT Population): 1.95 (0.153) CSBMs/week
- Change from Baseline in CSBMs, Mean (SD) (Week 5, 6 mg, ITT Population): 1.99 (3.019) CSBMs/week
- Change from Baseline in CSBMs, Difference from Placebo [5]: 0.46 CSBMs/week
- Change from Baseline in CSBMs, LS Mean (SE) [5]: 1.97 (0.154) CSBMs/week
- Change from Baseline in CSBMs, Mean (SD) [5]: 1.99 (3.025) CSBMs/week
- Change from Baseline in CSBMs, Mean (SD) (Week 5, Active Combined, ITT Population-Excluding Duplicate Patients): 2.20 (3.216) CSBMs/week
- Change from Baseline in CSBMs, Mean (SD) (Week 5, Active Combined, ITT Population): 2.18 (3.202) CSBMs/week
- Change from Baseline in CSBMs, Difference from Placebo (Week 6, 3 mg, ITT Population): 1.01 CSBMs/week
- Change from Baseline in CSBMs, LS Mean (SE) (Week 6, 3 mg, ITT Population): 2.32 (0.155) CSBMs/week
- Change from Baseline in CSBMs, Mean (SD) (Week 6, 3 mg, ITT Population): 2.43 (3.548) CSBMs/week
- Change from Baseline in CSBMs, Difference from Placebo [6]: 1.01 CSBMs/week
- Change from Baseline in CSBMs, LS Mean (SE) [6]: 2.35 (0.158) CSBMs/week
- Change from Baseline in CSBMs, Mean (SD) [6]: 2.45 (3.571) CSBMs/week
- Change from Baseline in CSBMs, Difference from Placebo (Week 6, 6 mg, ITT Population): 0.92 CSBMs/week
- Change from Baseline in CSBMs, LS Mean (SE) (Week 6, 6 mg, ITT Population): 2.24 (0.153) CSBMs/week
- Change from Baseline in CSBMs, Mean (SD) (Week 6, 6 mg, ITT Population): 2.29 (3.384) CSBMs/week
- Change from Baseline in CSBMs, Difference from Placebo [7]: 0.93 CSBMs/week
- Change from Baseline in CSBMs, LS Mean (SE) [7]: 2.27 (0.155) CSBMs/week
- Change from Baseline in CSBMs, Mean (SD) [7]: 2.31 (3.391) CSBMs/week
- Change from Baseline in CSBMs, Mean (SD) (Week 6, Active Combined, ITT Population-Excluding Duplicate Patients): 2.38 (3.478) CSBMs/week
- Change from Baseline in CSBMs, Mean (SD) (Week 6, Active Combined, ITT Population): 2.36 (3.464) CSBMs/week
- Change from Baseline in CSBMs, Difference from Placebo (Week 7, 3 mg, ITT Population): 0.81 CSBMs/week
- Change from Baseline in CSBMs, LS Mean (SE) (Week 7, 3 mg, ITT Population): 2.29 (0.155) CSBMs/week
- Change from Baseline in CSBMs, Mean (SD) (Week 7, 3 mg, ITT Population): 2.40 (3.413) CSBMs/week
- Change from Baseline in CSBMs, Difference from Placebo [8]: 0.83 CSBMs/week
- Change from Baseline in CSBMs, LS Mean (SE) [8]: 2.33 (0.158) CSBMs/week
- Change from Baseline in CSBMs, Mean (SD) [8]: 2.44 (3.435) CSBMs/week
- Change from Baseline in CSBMs, Difference from Placebo (Week 7, 6 mg, ITT Population): 0.82 CSBMs/week
- Change from Baseline in CSBMs, LS Mean (SE) (Week 7, 6 mg, ITT Population): 2.31 (0.154) CSBMs/week
- Change from Baseline in CSBMs, Mean (SD) (Week 7, 6 mg, ITT Population): 2.38 (3.361) CSBMs/week
- Change from Baseline in CSBMs, Difference from Placebo [9]: 0.83 CSBMs/week
- Change from Baseline in CSBMs, LS Mean (SE) [9]: 2.34 (0.155) CSBMs/week
- Change from Baseline in CSBMs, Mean (SD) [9]: 2.40 (3.369) CSBMs/week
- Change from Baseline in CSBMs, Mean (SD) (Week 7, Active Combined, ITT Population-Excluding Duplicate Patients): 2.42 (3.399) CSBMs/week
- Change from Baseline in CSBMs, Mean (SD) (Week 7, Active Combined, ITT Population): 2.39 (3.384) CSBMs/week
- Change from Baseline in CSBMs, Difference from Placebo (Week 8, 3 mg, ITT Population): 1.01 CSBMs/week
- Change from Baseline in CSBMs, LS Mean (SE) (Week 8, 3 mg, ITT Population): 2.52 (0.156) CSBMs/week
- Change from Baseline in CSBMs, Mean (SD) (Week 8, 3 mg, ITT Population): 2.67 (3.747) CSBMs/week
- Change from Baseline in CSBMs, Difference from Placebo [10]: 1.06 CSBMs/week
- Change from Baseline in CSBMs, LS Mean (SE) [10]: 2.56 (0.158) CSBMs/week
- Change from Baseline in CSBMs, Mean (SD) [10]: 2.68 (3.765) CSBMs/week
- Change from Baseline in CSBMs, Difference from Placebo (Week 8, 6 mg, ITT Population): 0.82 CSBMs/week
- Change from Baseline in CSBMs, LS Mean (SE) (Week 8, 6 mg, ITT Population): 2.33 (0.154) CSBMs/week
